Results: the CheMixHub viscosity set

Assay: xn = mol fraction of the nth substance listed
Conditions: 101 kPa

O=CO + CN(C)C=O
303.15 K
Conditions	viscosity [mPa·s]
x1 = 0.1513	0.848
x1 = 0.2841	0.986
x1 = 0.4038	1.16
x1 = 0.6144	1.45
x1 = 0.7869	1.58
x1 = 0.8657	1.58

C1CN2CN3CCN(CN1C3)C2 + [2H]O[2H]
viscosity [mPa·s]
Conditions	x1 = 0.004058	x1 = 0.008015	x1 = 0.01192	x1 = 0.01581	x1 = 0.02009
293.15 K	1.263	1.307	1.389	1.485	1.602
298.15 K	1.128	1.174	1.233	1.315	1.426
300.15 K	1.018	1.066	1.131	1.225	1.352
305.15 K	0.918	0.975	1.042	1.133	1.251
